{"source": "patent US12310962B2", "about": "“Methods and compositions for treating cancer” (Zetagen Therapeutics, Inc., priority 2019, dated 2025)", "key": {"SaOS2 osteosarcoma cells": {"system": "SaOS2 osteosarcoma cells", "test": "Tumor spheroid assay", "format": "cell-based", "conditions": "1-5 mM, dose dependent", "description": "(§1) FIGS. 3A-3C depict a spheroid assay showing that naloxone (an OGFR antagonist) treatment decreases tumor size in vitro. […] FIG. 3B depicts a graph showing quantification of the size of the spheroids formed in the spheroid assay described in FIG. 3A as percent change in spheroid area fraction between time 0 and 120 hours after treatment. FIG. 3C depicts a graph showing quantification of the size of the spheroids formed in the spheroid assay described in FIG. 3A as percent change in cell area fraction in each spheroid at 120 hours after treatment.\n(§2) Malignant tumors are characterized by invasion of surrounding normal tissues, and the spheroid assay is a simple micro-plate method (based on uniform, self-assembling 3D tumor spheroids) that is routinely used to assess tumor growth. The effects of anti-tumor efficacy were determined by quantifying the size of the spheroids formed in the and calculate percent change in spheroid area fraction between time 0 and 120 hours after treatment as shown in FIG. 3B. The anti-tumor efficacy was also determined by quantifying the percent change in cell area fraction in each spheroid at 120 hours after treatment as determined by staining the cells with crystal violet as shown in FIG. 3C."}, "BT474 TNBC cells": {"system": "BT474 TNBC cells", "test": "Tumor spheroid assay", "format": "cell-based", "conditions": "1-5 mM, dose dependent", "description": "as §1, §2"}, "[1]": {"system": "non-tumor cells, breast epithelium (HUMEC) or vascular endothelium (HUVEC)", "test": "Cell number of non-tumor control cells versus naloxone dose", "format": "cell-based", "conditions": "72 h"}, "[2]": {"system": "breast cancer cells (BT474)", "test": "LDH release cytotoxicity assay", "format": "cell-based", "conditions": "naloxone added for 3 hours, LDH release at 24 hours post-treatment, corrected for cell number, p<0.001"}, "[3]": {"system": "osteosarcoma cells (SaOS2)", "test": "LDH release cytotoxicity assay", "format": "cell-based", "conditions": "naloxone added for 3 hours, LDH release at 24 hours post-treatment, corrected for cell number, p<0.001"}, "[4]": {"test": "Cell number after 72 hours of naloxone treatment", "format": "cell-based", "conditions": "cells printed as \"90\"; highest dose; after 72 hours"}, "[5]": {"system": "triple negative breast cancer (TNBC) cells BT474", "test": "Cell number after 72 hours of naloxone treatment", "format": "cell-based", "conditions": "BT474; 72 h exposure; dose dependent"}, "[6]": {"system": "breast cancer cells (BT20)", "test": "LDH release cytotoxicity assay", "format": "cell-based", "conditions": "naloxone added for 3 hours, LDH release at 24 hours post-treatment, corrected for cell number, p<0.001"}, "SaOS2 cells": {"system": "SaOS2 cells", "test": "Cell number after 72 hours of naloxone treatment", "conditions": "highest dose"}, "BT20": {"system": "BT20", "test": "Cell number after 72 hours of naloxone treatment", "conditions": "highest dose"}, "[7]": {"conditions": "between time 0 and 120 hours after treatment"}}, "note": "Entries after “also recorded” stand apart in the source; their conditions may differ."}
{"smiles": "C=CCN1CC[C@]23c4c5ccc(O)c4O[C@H]2C(=O)CC[C@@]3(O)[C@H]1C5", "note": "[Naloxone, naloxone]", "values": [{"measurement": "tumor mass cellularity (percent change in cell area fraction, crystal violet)", "setting": "SaOS2 osteosarcoma cells; 120 hours after treatment", "value": "decreased"}, {"measurement": "size of the tumor masses (percent change in spheroid area fraction)", "setting": "SaOS2 osteosarcoma cells; [7]", "value": "decreased the size of the tumor masses"}, {"measurement": "tumor mass cellularity (percent change in cell area fraction, crystal violet)", "setting": "BT474 TNBC cells; 120 hours after treatment", "value": "decreased"}, {"measurement": "size of the tumor masses (percent change in spheroid area fraction)", "setting": "BT474 TNBC cells; [7]", "value": "reduced tumor growth; also recorded: decreased the size of the tumor masses"}, {"measurement": "dose up to which a non-tumor cell sparing effect is provided", "setting": "[1]", "value": "≤ 2.5", "unit": "mM"}, {"measurement": "increase in LDH values relative to normal (non-tumor) cells", "setting": "[2]", "value": 3, "unit": "fold"}, {"measurement": "increase in LDH values relative to normal (non-tumor) cells", "setting": "[3]", "value": 6, "unit": "fold"}, {"measurement": "decrease in cell number", "setting": "[4]", "value": 90, "unit": "%"}, {"measurement": "number of metabolically active cells compared to control non-tumor cells (HUMEC, HUVEC)", "setting": "[5]", "value": "significant reduction"}, {"measurement": "increase in LDH values relative to normal (non-tumor) cells", "setting": "[6]", "value": 6, "unit": "fold"}, {"measurement": "decrease in cell number", "setting": "SaOS2 cells", "value": 60, "unit": "%"}, {"measurement": "decrease in cell number", "setting": "BT20", "value": 90, "unit": "%"}]}
